In patent publication US11952325B1, “5,5′-naphthalene-1,5-diylbis(diazene-2,1-diyl)bis(2-hydroxybenzaldehyde) as an antioxidant compound” (KING FAISAL UNIVERSITY, priority 2023, dated 2024):

Experiment: DPPH radical scavenging antioxidant test
Type: biochemical
Conditions: 517 nm; for Inhibition (radical scavenging inhibition): 0.2 mL DPPH (0.75 mM), compound 3 μM in ethanol, 30 min incubation in the dark
Method: The antioxidant activity of 5,5′-naphthalene-1,5-diylbis(diazene-2,1-diyl)bis(2-hydroxybenzaldehyde) was investigated by 2,2-diphenyl-1-picrylhydrazyl (DPPH) in vitro tests that employ vitamin C as the positive control.
The antioxidant properties of the 5,5′-naphthalene-1,5-diylbis(diazene-2,1-diyl)bis(2-hydroxybenzaldehyde) were studied by adding 0.2 mL DPPH (0.75 mM)) to compound 5,5′-naphthalene-1,5-diylbis(diazene-2,1-diyl)bis(2-hydroxybenzaldehyde) (III) (3 μM) in ethanol. After 30 min of incubation in the dark, the absorbance was read against a blank at 517 nm. Ascorbic acid (vitamin C) was used as standard antioxidants (positive control). A blank sample was prepared by 0.2 ml of DPPH in 3 ml ethanol. A negative control sample was run using ethanol instead of the sample. The radical scavenging inhibition was calculated using the following equation: […]
The antioxidant activity for the synthesized compound is listed in Table 1, using Vitamin C as a reference.

O=Cc1cc(/N=N\c2cccc3c(/N=N/c4ccc(O)c(C=O)c4)cccc23)ccc1O [Product III, 5,5′-naphthalene-1,5-diylbis(diazene-2,1-diyl)bis(2-hydroxybenzaldehyde)]
Inhibition (radical scavenging inhibition): 54% | antioxidant potential compared to vitamin C (vanishing DPPH radical colors) (DPPH in vitro test, vitamin C as positive control): high potential as an antioxidant

O=C1O[C@H]([C@@H](O)CO)C(O)=C1O [vit c, Ascorbic acid, reference compound]
Inhibition (radical scavenging inhibition): 74%
